Source: PubChem BioAssay (NCI)
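1) Cells in 96-well plates. 2) Compound, 48 h, 5 concentrations. 3) Linear interpolation between surrounding doses. 4) Unreached endpoint = highest concentration. Here, GI50 denotes the concentration required for 50% inhibition of growth. At the TGI there is no net growth.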

Columns and labels:
Assay in all cases: NCI tumour cell line growth inhibition, 48 h
DMS 273 small cell lung = system: DMS 273 small cell lung
SK-MEL-5 melanoma = system: SK-MEL-5 melanoma
HCT-15 colon = system: HCT-15 colon
OVCAR-5 ovarian = system: OVCAR-5 ovarian
NCI-H460 lung = system: NCI-H460 lung
XF 498 CNS = system: XF 498 CNS
CAKI-1 renal = system: CAKI-1 renal
NCI-H226 lung = system: NCI-H226 lung
HOP-92 NSCLC = system: HOP-92 NSCLC
MCF7 breast = system: MCF7 breast

Row | Structure (SMILES) | TGI (DMS 273 small cell lung) [µM] | TGI (SK-MEL-5 melanoma) [µM] | TGI (HCT-15 colon) [µM] | TGI (OVCAR-5 ovarian) [µM] | TGI (NCI-H460 lung) [µM] | TGI (XF 498 CNS) [µM] | TGI (CAKI-1 renal) [µM] | TGI (NCI-H226 lung) [µM] | TGI (HOP-92 NSCLC) [µM] | GI50 (SK-MEL-5 melanoma) [µM] | GI50 (HCT-15 colon) [µM] | GI50 (NCI-H226 lung) [µM] | GI50 (OVCAR-5 ovarian) [µM] | GI50 (NCI-H460 lung) [µM] | GI50 (HOP-92 NSCLC) [µM] | GI50 (CAKI-1 renal) [µM] | GI50 (MCF7 breast) [µM] | TGI (MCF7 breast) [µM] | GI50 (DMS 273 small cell lung) [µM] | GI50 (XF 498 CNS) [µM]
1 | COc1ccc2oc3c(OC)c(OC)c(OC)cc3c(=O)c2c1 | > 100 | > 100 | > 100 | > 100 | > 100 | > 100 | > 100 | – | – | – | – | – | – | – | – | – | – | – | – | –
2 | N#Cc1ccccc1NC(=O)C(=O)C1NC(=S)NC1=O (stereo unspecified) | – | > 100 | > 100 | > 100 | > 100 | > 100 | > 100 | > 100 | > 100 | – | – | – | – | – | – | – | – | – | – | –
3 | CC1=C(C(=O)Nc2ccccc2)C(c2ccccc2Cl)C(C(=O)Nc2ccccc2)=C(C)N1 | 41.9 | 29.8 | 38.5 | 61.2 | – | – | 57.2 | 59 | 45.2 | – | – | – | – | – | – | – | – | – | – | –
4 | NC(=O)c1ccc(Oc2nccc(-c3c(-c4ccc(F)cc4)ncn3C3CCNCC3)n2)cc1 | – | > 25 | > 25 | > 25 | > 25 | – | > 25 | > 25 | > 25 | > 25 | > 25 | > 25 | > 25 | > 25 | > 25 | > 25 | > 25 | > 25 | – | –
5 | COc1cc(C2C3=C(COC3=O)N(CCO)c3cc4c(cc32)OCCO4)cc(OC)c1OC (stereo unspecified) | – | 0.916 | > 50 | > 50 | 1.68 | – | > 50 | > 50 | > 50 | 0.179 | 1.37 | 4.48 | 2.09 | 0.208 | 0.111 | 2.11 | 0.192 | > 50 | – | –
6 | CSc1nc2nc3c(nc2c(=O)n1C)C(=O)c1ccccc1C3=O | – | 0.0322 | 0.429 | 0.355 | 0.393 | – | 1 | 0.461 | 2.59 | 0.0169 | 0.164 | 0.193 | 0.199 | 0.101 | 0.476 | 0.3 | 0.162 | 0.384 | – | –
7 | CCCOC(=O)c1c(C)n(C)c2scc[n+]12 | – | > 100 | > 100 | > 100 | > 100 | – | > 100 | > 100 | > 100 | 49.1 | > 100 | 62.3 | > 100 | 52.8 | 15.1 | 39.9 | 31.2 | > 100 | – | –
8 | Cc1ccc(N=C[N-]c2ccc(C)cc2)cc1.Cc1ccc(N=C[N-]c2ccc(C)cc2)cc1.O=C([O-])C(F)(F)F.O=C([O-])C(F)(F)F.[OH3+].[OH3+].[Rh+2].[Rh+2] | > 100 | > 100 | > 100 | > 100 | > 100 | 59.4 | > 100 | > 100 | – | 30.7 | 46.1 | 89.6 | > 100 | > 100 | – | > 100 | – | – | 80.2 | 22.5
9 | O=C(NCCCc1cn[nH]c1)c1ccc(-c2ccncc2)c(C#Cc2ccc(F)cc2)c1 | – | 16.6 | > 57.9 | > 100 | 41.9 | – | > 100 | 51.3 | 87 | 2.3 | < 0.01 | 6.2 | 0.122 | 0.145 | 12.7 | 6.92 | 1.9 | > 70.2 | – | –
10 | Cc1ccc(NC(=O)C(=O)CC(=O)c2c(C)n([O-])c3ccccc3[n+]2=O)cc1C | > 100 | > 100 | > 100 | > 100 | > 100 | – | > 100 | > 100 | > 100 | – | – | – | – | – | – | – | – | – | – | –
11 | CCC(C)CC(C)CC(C)/C=C(\C)C1=C(C)CC(C)(O)O1 (stereo unspecified) | > 100 | > 100 | > 100 | – | > 100 | – | > 100 | > 100 | 79.7 | – | – | – | – | – | – | – | – | – | – | –
12 | C/C(CN1C(=O)c2ccccc2C1=O)=N\NS(=O)(=O)c1cccc(C(=O)O)c1 | > 100 | > 100 | > 100 | > 100 | > 100 | > 100 | > 100 | > 100 | – | – | – | – | – | – | – | – | – | – | – | –
13 | Nc1nc2c(C(=O)NCc3cccs3)nnn2c2cccc(Cl)c12 | – | > 100 | > 100 | > 100 | > 100 | – | > 100 | > 100 | > 100 | – | – | – | – | – | – | – | – | > 100 | – | –
14 | ClCc1ccccc1Cn1cnc2ncnc(Cl)c21 | – | 4.12 | 2.91 | 7.3 | 60.9 | – | 4.21 | 7.89 | 12.8 | 1.37 | 1.36 | 3.35 | 2.84 | 13.5 | 4.38 | 2.36 | 3.64 | > 100 | – | –
15 | COc1ccc(C(=O)c2cc(C)c(OC)c(C)c2)c(OC)c1NC(C)=O | – | 7.15 | > 100 | > 100 | > 33.9 | – | > 100 | 1.58 | > 100 | 0.364 | 0.452 | 0.102 | 0.191 | 0.3 | 1.02 | 0.0639 | 0.491 | > 100 | – | –
16 | O=C1CSC(c2ccccc2Cl)N1c1nnc(Cn2cnnc2)o1 (stereo unspecified) | – | 21.2 | 18.2 | 44.3 | 43.8 | – | > 100 | 36.1 | 79.1 | 7.81 | 4.47 | 17.3 | 20.4 | 7.91 | 19.3 | 11.4 | 1.63 | 13.2 | – | –
17 | C#CC1=CC(=O)C(OC)=CC1=O | – | 40 | 32.3 | > 100 | > 100 | – | 42.6 | 42 | 34 | – | – | – | – | – | – | – | – | 35.8 | – | –
18 | [N-]=[N+]=NCCCn1c2c(c3ccc([N+](=O)[O-])cc3c1=O)C(=O)c1cc(Br)ccc1-2 | – | > 100 | > 100 | > 100 | > 100 | – | > 100 | > 100 | > 100 | > 100 | > 100 | > 100 | > 100 | 8.35 | 37.7 | 0.887 | 8.15 | > 100 | – | –
